Laboratory results taken from US20090312243A1, “TREATMENT OF INFLAMMATORY BOWEL DISEASE (IBD) WITH ANTI-ANGIOGENIC COMPOUNDS” (priority 2005, published 2009).
Entries after “also recorded” stand apart in the source; their conditions may differ.

Legend:
[1] = tested on: human colon cancer cells (HT29); conditions: HT29 do not express integrin α5β1; cited from earlier work
[2] = tested on: C57BL/10 IL-10-deficient mice; assay: Microvessel density in colon sections by anti-CD31 immunostaining; format: in vivo, mouse; conditions: zinc fixed colon sections
Method: FIG. 4 is a graph showing an analysis of microvessel density using anti-CD31 immunostaining. Immunostaining was performed using the mouse CD31 specific mAb MEC 13.3 (Becton-Dickinson, San Diego, Calif.). Morphometric analysis was carried out using an international consensus for the quantification of angiogenesis (Vermeulen P B et al., Eur J Cancer 32A:2474-84; Eur J Cancer 38:1564-15). In particular stained colonic sections were scanned at low power (40×) to detect the most vascularized area, after which at least 5 microphotographs at 200× magnification were taken in the mucosa and in the submucosa. The number of vessels/field (mean vascular density) was performed using Image Pro Plus Software (Media Cybernetics, Silver Spring, Md.).
Microvessel density as a measure of angiogenesis was determined in zinc fixed colon sections.

IL-12 = IL-12 production in vitro by LPMC extracts and splenocytes; format: cell-based; conditions: lamina propria mononuclear cell (LPMC) extracts and splenocytes
Method: (§1) The effect of ATN-161 on IL-6 and IL-12 expression was also evaluated in vitro using lamina propria mononuclear cell (LPMC) extracts and splenocytes.

IL-6 [3] = assay: IL-6 in supernatants of cultured colon fragments from treated mice (ELISA); format: in vivo, mouse; conditions: 48 hours culture; versus ATN-163 treated controls
Method: (§2) FIGS. 3A and 3B are graphs showing that colon fragments from ATN-161 treated mice expressed lower levels of IL-12 and IL-6. Fragments of colon from mice treated with ATN-161 or ATN-163 were cultured in RPMI media +2% fetal bovine serum and 2.5% PSF (antibiotic-antimycotic). After 48 hours, supernatants were harvested and kept frozen at −80 C. FIG. 3A: IL-12(p40) was analyzed using an ELISA in which plates had been coated with the monoclonal antibody C15.6. FIG. 3B: IL-6 was analyzed using a commercially available ELISA kit specific for mouse IL-6 (R&D Systems, Minneapolis, Minn.).
(§3) Biopsies were also cultured in vitro and the supernatants analyzed for IL-6 and IL-12 expression as previously described (Spencer D M et al., 2002, Gastroenterology 122:94-105). IL-6 and IL-12 are inflammatory cytokines that have been correlated with the pathogenesis of colitis (Mahida Y R, 2000, Inflamm Bowel Dis 6:21-33).

tumor angiogenesis = conditions: cited from earlier work
IL-6 [4] = assay: IL-6 production in vitro by LPMC extracts and splenocytes; format: cell-based; conditions: lamina propria mononuclear cell (LPMC) extracts and splenocytes
Method: as §1

cell adhesion = conditions: cited from earlier work
IL-12(p40) = assay: IL-12 in supernatants of cultured colon fragments from treated mice (ELISA); format: in vivo, mouse; conditions: 48 hours culture; versus ATN-163 treated controls
Method: as §2, §3

[5] = tested on: C57BL/10 IL-10-deficient mice; assay: Histologic grading for colitis of colon at Week 6; format: in vivo, mouse; conditions: end of Week 6; ATN-161 versus ATN-163 treated group
Method: FIG. 2 is a graph summarizing the histologic grading for colitis at Week 6. Grading of intestinal inflammation was determined in a blinded fashion by three readers: no inflammation (0); modest numbers of infiltrating cells in the lamina propria (1); infiltration of mononuclear cells leading to separation of crypts and mild mucosal hyperplasia (2); massive infiltration with inflammatory cells accompanied by disrupted mucosal architecture, loss of goblet cells, and marked mucosal hyperplasia (3); all of the above plus crypt abscesses or ulceration (4).
Animals were euthanized at the end of Week 6 and the colon removed for histologic analysis.

[6] = tested on: C57BL/10 IL-10-deficient mice; assay: IL-10-deficient mouse colitis model, disease activity index (DAI); format: in vivo; conditions: for effect on established colitis (disease activity index): n=12 per group
Method: The DAI was calculated by scoring 1 point for the appearance of each of the following: ruffled fur, occult fecal blood as determined on a Hemoccult Sensa® card (Smith Kline Diagnostics, San Jose, Calif.), rectal prolapse <1 mm, and soft stool. The mice were scored an additional point for diarrhea or severe rectal prolapse >1 mm. The mean with standard error bars of the DAI are plotted for pretreatment and then at the end of each week of treatment (n=12 per group).
The preferred, and widely used, model for testing is the IL-10-deficient (KO) mouse (on a C57BL/10 strain background). As described in the Examples, colonies of C57BL/10 IL-10 KO mice are bred and used. These mice consistently develop colitis at 10-12 weeks of age when transported from the ultra-barrier facility to conventional housing. These mice are used to test the effect of a candidate anti-angiogenic agent on pathogenesis and treatment of established disease.
Colonies of C57BL/10 IL-10-deficient mice were routinely bred at the Case Western Reserve University Animal Research Center for studies of early and late colitis. These mice consistently develop colitis at 10-12 weeks of age when transported from the ultra-barrier facility to conventional housing. These mice were used to test the effect of ATN 161 (Ac-PHSCN—NH2) on both the development and treatment of established disease.
ATN-161 had no effect on the development of colitis in this model when treatment was initiated at the time that the mice were moved to conventional housing. […] A scrambled peptide version of ATN-161 (ATN-163; Ac-HSPNC—NH2) was used as a control and had no effect on established colitis in this model. ATN-163 and vehicle controls were indistinguishable in these studies (data not shown).

Row | Substance | in vivo growth of xenografted HT29 cells [1] | reduction of microvessels versus ATN-163 treated controls [2] | effect on IL-12 production (IL-12) | IL-6 level in colon fragment organ culture (IL-6 [3]) | effect on efficacy of 5-fluorouracil (tumor angiogenesis; combination with 5-fluorouracil) | effect on tumor angiogenesis (tumor angiogenesis; in vivo) | effect on IL-6 production (IL-6 [4]) | effect on cell adhesion (cell adhesion) | IL-12 level in colon fragment organ culture (IL-12(p40)) | histologic score [5] | treatment time after which the reduction of colitis was observed ([6]; mice with established disease) | effect on established colitis (disease activity index) ([6]; mice with established disease) | effect on the development of colitis ([6]; treatment initiated at the time the mice were moved to conventional housing)
1 | Ac-PHSCN—NH2 (Ac-PHSCN-NH2) [ATN-161] | significantly reduced | approximately 40% | no effect | significantly lower levels | enhance the efficacy | inhibited tumor angiogenesis | no effect | does not affect cell adhesion | significantly lower levels | significantly lower | approximately four | consistently reduced colitis; also recorded: reduces established colitis | no effect
2 | Ac-HSPNC—NH2 (Ac-HSPNC-NH2) [ATN-163, reference compound] | – | – | – | – | – | – | – | – | – | – | – | no effect | –
